Reference: paper PMC8445441, “Elucidating the mechanism by which synthetic helper peptides sensitize Pseudomonas aeruginosa to multiple antibiotics” (PLoS Pathogens, 2021)
Like-named read-outs stand apart in the source and are kept apart here.

How the values were obtained:
[1] = tested on: clinical P. aeruginosa isolates; assay: microbe, parasite or virus in culture; conditions: Pseudomonas aeruginosa, 18 h, antibiotic alone
Procedure, shortened: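 MIC is the lowest drug concentration showing no visible growth after 18 h at 37 °C. Two-fold dilutions in MHB were combined with an equal volume of bacterial suspension (about 1 × 10^6 CFU/mL), following CLSI broth microdilution, in triplicate.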

P. aeruginosa AUMC-Pa-6 = assay: microbe, parasite or virus in culture; conditions: strain AUMC-Pa-6; for FICI: antibiotic + D-11 (MICb/MICbc 64/4); for MICa: MIC of the antibiotic: antibiotic alone; for MICa: MIC of the antibiotic / MICac: MIC of the antibiotic in the combination: unit not given; for MICac: MIC of the antibiotic in the combination: with D-11 at MICbc 4
Procedure, shortened: (§1)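 CLSI broth dilution; MHB; ~1 × 10^6 CFU/mL suspension mixed equal volume with drug; 37 °C for 18 h; visual read; triplicate. Broth sometimes supplemented with PG, PE, PC, CL, LPS, MgCl2, CaCl2 or PAβN.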

P. aeruginosa AUMC-Pa-3 = assay: microbe, parasite or virus in culture; conditions: strain AUMC-Pa-3; for FICI: antibiotic + D-11 (MICb/MICbc 128/4); for MICa: MIC of the antibiotic: antibiotic alone; for MICa: MIC of the antibiotic / MICac: MIC of the antibiotic in the combination: unit not given; for MICac: MIC of the antibiotic in the combination: with D-11 at MICbc 4
Procedure, shortened: as §1

P. aeruginosa AUMC-Pa-4 = assay: microbe, parasite or virus in culture; conditions: strain AUMC-Pa-4; for FICI: antibiotic + D-11 (MICb/MICbc 128/4); for MICa: MIC of the antibiotic: antibiotic alone; for MICa: MIC of the antibiotic / MICac: MIC of the antibiotic in the combination: unit not given; for MICac: MIC of the antibiotic in the combination: with D-11 at MICbc 4
Procedure, shortened: as §1

P. aeruginosa PAO1 = assay: microbe, parasite or virus in culture; conditions: PAO1
Procedure, shortened: as §1

P. aeruginosa AUMC-Pa-5 = assay: microbe, parasite or virus in culture; conditions: strain AUMC-Pa-5; for FICI: antibiotic + D-11 (MICb/MICbc 64/4); for MICa: MIC of the antibiotic: antibiotic alone; for MICa: MIC of the antibiotic / MICac: MIC of the antibiotic in the combination: unit not given; for MICac: MIC of the antibiotic in the combination: with D-11 at MICbc 4
Procedure, shortened: as §1

P. aeruginosa PAK = assay: microbe, parasite or virus in culture; parameters: MICa: MIC of the antibiotic / MICac: MIC of the antibiotic in the combination: unit not given beside the values; conditions: strain PAK; for FICI: antibiotic + D-11 (MICb/MICbc 64/4); for MICa: MIC of the antibiotic: antibiotic alone; for MICa: MIC of the antibiotic / MICac: MIC of the antibiotic in the combination: unit not given; for MICac: MIC of the antibiotic in the combination: with D-11 at MICbc 4
Protocol: (§2) The MIC tests were performed in triplicate using broth microdilution in accordance with Clinical and Laboratory Standards Institute (CLSI) recommendations (http://iacld.ir/DL/public/CLSI-2018-M100-S28.pdf). Briefly, drugs were two-fold diluted in MHB and mixed with an equal volume of bacterial suspensions containing approximately 1 × 10^6 CFU/mL in 96-well microliter plate. After 18 h incubation at 37 °C, the MIC values were defined as the lowest concentrations of antibiotics with no visible growth of bacteria. […] Otherwise, 1/4 MIC of the peptide was used in the combination. […] If needed, membrane compounds PG, PE, PC, CL or LPS, or membrane stabilizers MgCl2 or CaCl2, or efflux pumps inhibitor PAβN were added to the broth medium to clarify the effect of other substances on the synergy between peptide and antibiotics. All the tests were performed in triplicate.
(§3) The fractional inhibitory concentration (FIC) indices were calculated using the previously described formula FICI = FICa + FICb = MICac/MICa + MICbc/MICb. The FICI was interpreted according to EUCAST [65] as follows: synergistic, FICI≤0.5; additive, 0.5<FICI≤1; indifferent, 1<FICI<2; antagonistic, FICI ≥2. For the FICI calculations, twice the highest concentration tested was used in the cases where the MIC was not reached.

P. aeruginosa ATCC27853 = assay: microbe, parasite or virus in culture; parameters: MICa: MIC of the antibiotic / MICac: MIC of the antibiotic in the combination: unit not given beside the values; conditions: strain ATCC27853; for FICI: antibiotic + D-11 (MICb/MICbc 32/4); for MICa: MIC of the antibiotic: antibiotic alone; for MICa: MIC of the antibiotic / MICac: MIC of the antibiotic in the combination: unit not given; for MICac: MIC of the antibiotic in the combination: with D-11 at MICbc 4
Protocol: as §2, §3

P. aeruginosa NR-31041 = assay: microbe, parasite or virus in culture; parameters: MICa: MIC of the antibiotic / MICac: MIC of the antibiotic in the combination: unit not given beside the values; conditions: strain NR-31041; for FICI: antibiotic + D-11 (MICb/MICbc 64/4); for MICa: MIC of the antibiotic: antibiotic alone; for MICa: MIC of the antibiotic / MICac: MIC of the antibiotic in the combination: unit not given; for MICac: MIC of the antibiotic in the combination: with D-11 at MICbc 4
Protocol: as §2, §3

P. aeruginosa NR-31040 = assay: microbe, parasite or virus in culture; parameters: MICa: MIC of the antibiotic / MICac: MIC of the antibiotic in the combination: unit not given beside the values; conditions: strain NR-31040; for FICI: antibiotic + D-11 (MICb/MICbc 128/4); for MICa: MIC of the antibiotic: antibiotic alone; for MICa: MIC of the antibiotic / MICac: MIC of the antibiotic in the combination: unit not given; for MICac: MIC of the antibiotic in the combination: with D-11 at MICbc 4
Protocol: as §2, §3

P. aeruginosa PA14 = assay: microbe, parasite or virus in culture; parameters: MICa: MIC of the antibiotic / MICac: MIC of the antibiotic in the combination: unit not given beside the values; conditions: strain PA14; for FICI: antibiotic + D-11 (MICb/MICbc 128/4); for MICa: MIC of the antibiotic: antibiotic alone; for MICa: MIC of the antibiotic / MICac: MIC of the antibiotic in the combination: unit not given; for MICac: MIC of the antibiotic in the combination: with D-11 at MICbc 4
Protocol: as §2, §3

P. aeruginosa AUMC-Pa-1 = conditions: strain AUMC-Pa-1; antibiotic + D-11 (MICb/MICbc 128/4)
Protocol: as §2, §3

P. aeruginosa AUMC-Pa-2 = conditions: strain AUMC-Pa-2; antibiotic + D-11 (MICb/MICbc 64/4)
Protocol: as §2, §3

P. aeruginosa HM-214 = conditions: strain HM-214; antibiotic + D-11 (MICb/MICbc 128/4)
Protocol: as §2, §3

[2] = read-out: Antibiotic sensibility (MIC) of clinical P. aeruginosa isolate AUMC-Pa-1, strain AUMC-Pa-1
[3] = read-out: Antibiotic sensibility (MIC) of clinical P. aeruginosa isolate AUMC-Pa-2, strain AUMC-Pa-2
[4] = read-out: Antibiotic sensibility (MIC) of clinical P. aeruginosa isolate AUMC-Pa-3, strain AUMC-Pa-3
[5] = read-out: Antibiotic sensibility (MIC) of clinical P. aeruginosa isolate AUMC-Pa-4, strain AUMC-Pa-4
[6] = read-out: Antibiotic sensibility (MIC) of clinical P. aeruginosa isolate AUMC-Pa-5, strain AUMC-Pa-5
[7] = read-out: Antibiotic sensibility (MIC) of clinical P. aeruginosa isolate AUMC-Pa-6, strain AUMC-Pa-6
[8] = read-out: Antibiotic sensibility (MIC) of clinical P. aeruginosa isolate HM-214, strain HM-214
[9] = read-out: Antibiotic sensibility (MIC) of clinical P. aeruginosa isolate NR-31040, strain NR-31040
[10] = read-out: Antibiotic sensibility (MIC) of clinical P. aeruginosa isolate NR-31041, strain NR-31041
[11] = S3 Table, antibiotic + 2 μM D-11
[12] = S3 Table, antibiotic + 4 μM D-11

C[C@H]1[C@H](NC(=O)/C(=N\OC(C)(C)C(=O)O)c2csc(N)n2)C(=O)N1S(=O)(=O)O [Aztreonam]
MIC [1, 2]: 32 µM
MIC [1, 3]: 4 µM
MIC [1, 4]: 16 µM
MIC [1, 5]: 32 µM
MIC [1, 6]: 16 µM
MIC [1, 7]: 16 µM
MIC [1, 8]: 16 µM
MIC [1, 9]: 4 µM
MIC [1, 10]: 64 µM
FICI (P. aeruginosa AUMC-Pa-6): 0.563
MICa: MIC of the antibiotic (P. aeruginosa AUMC-Pa-6): 16
MICac: MIC of the antibiotic in the combination (P. aeruginosa AUMC-Pa-6): 8
FICI (P. aeruginosa AUMC-Pa-3): 0.094
MICa: MIC of the antibiotic (P. aeruginosa AUMC-Pa-3): 16
MICac: MIC of the antibiotic in the combination (P. aeruginosa AUMC-Pa-3): 1
FICI (P. aeruginosa AUMC-Pa-4): 0.156
MICa: MIC of the antibiotic (P. aeruginosa AUMC-Pa-4): 32
MICac: MIC of the antibiotic in the combination (P. aeruginosa AUMC-Pa-4): 4
MIC (P. aeruginosa PAO1; Pseudomonas aeruginosa, PAO1, 18 h, read-out: MICa: the MIC of antibiotics, S3 Table, antibiotic alone): 8 µM
FICI (P. aeruginosa PAO1; [11]): 0.188
FICI (P. aeruginosa PAO1; [12]): 0.156
MICac: the MIC for the antibiotic in the combination (P. aeruginosa PAO1; S3 Table, with 2 μM D-11): 1 µM
MICac: the MIC for the antibiotic in the combination (P. aeruginosa PAO1; S3 Table, with 4 μM D-11): 0.25 µM
FICI (P. aeruginosa AUMC-Pa-5): 0.563
MICa: MIC of the antibiotic (P. aeruginosa AUMC-Pa-5): 16
MICac: MIC of the antibiotic in the combination (P. aeruginosa AUMC-Pa-5): 8
FICI (P. aeruginosa PAK): 0.563
MICa: MIC of the antibiotic (P. aeruginosa PAK): 8
MICac: MIC of the antibiotic in the combination (P. aeruginosa PAK): 4
FICI (P. aeruginosa ATCC27853): 0.625
MICa: MIC of the antibiotic (P. aeruginosa ATCC27853): 8
MICac: MIC of the antibiotic in the combination (P. aeruginosa ATCC27853): 4
FICI (P. aeruginosa NR-31041): 0.188
MICa: MIC of the antibiotic (P. aeruginosa NR-31041): 64
MICac: MIC of the antibiotic in the combination (P. aeruginosa NR-31041): 8
FICI (P. aeruginosa NR-31040): 0.281
MICa: MIC of the antibiotic (P. aeruginosa NR-31040): 4
MICac: MIC of the antibiotic in the combination (P. aeruginosa NR-31040): 1
FICI (P. aeruginosa PA14): 0.531
MICa: MIC of the antibiotic (P. aeruginosa PA14): 16
MICac: MIC of the antibiotic in the combination (P. aeruginosa PA14): 8
FICI (P. aeruginosa AUMC-Pa-1): 0.094
FICI (P. aeruginosa AUMC-Pa-2): 1.063
FICI (P. aeruginosa HM-214): 0.531

CC1(C)S[C@@H]2[C@H](NC(=O)C(C(=O)O)c3ccccc3)C(=O)N2[C@H]1C(=O)O (stereo partly shown) [Carbenicillin]
MIC [1, 2]: > 128 µM
MIC [1, 3]: 64 µM
MIC [1, 4]: 128 µM
MIC [1, 5]: 128 µM
MIC [1, 6]: 128 µM
MIC [1, 7]: 128 µM
MIC [1, 8]: 128 µM
MIC [1, 9]: 64 µM
MIC [1, 10]: 128 µM
FICI (P. aeruginosa AUMC-Pa-6): 1.063
MICa: MIC of the antibiotic (P. aeruginosa AUMC-Pa-6): 128/128
MICac: MIC of the antibiotic in the combination (P. aeruginosa AUMC-Pa-6): 128/128
FICI (P. aeruginosa AUMC-Pa-3): 0.281
MICa: MIC of the antibiotic (P. aeruginosa AUMC-Pa-3): 128
MICac: MIC of the antibiotic in the combination (P. aeruginosa AUMC-Pa-3): 32
FICI (P. aeruginosa AUMC-Pa-4): 0.531
MICa: MIC of the antibiotic (P. aeruginosa AUMC-Pa-4): 128
MICac: MIC of the antibiotic in the combination (P. aeruginosa AUMC-Pa-4): 64
FICI (P. aeruginosa PAO1; [11]): 0.313
FICI (P. aeruginosa PAO1; [12]): 0.188
MICac: the MIC for the antibiotic in the combination (P. aeruginosa PAO1; S3 Table, with 2 μM D-11): 16 µM
MICac: the MIC for the antibiotic in the combination (P. aeruginosa PAO1; S3 Table, with 4 μM D-11): 4 µM
MICa: the MIC of antibiotics (P. aeruginosa PAO1; S3 Table, antibiotic alone): 64 µM
FICI (P. aeruginosa AUMC-Pa-5): 1.063
MICa: MIC of the antibiotic (P. aeruginosa AUMC-Pa-5): 128/128
MICac: MIC of the antibiotic in the combination (P. aeruginosa AUMC-Pa-5): 128/128
FICI (P. aeruginosa PAK): 0.563
MICa: MIC of the antibiotic (P. aeruginosa PAK): 128
MICac: MIC of the antibiotic in the combination (P. aeruginosa PAK): 64
FICI (P. aeruginosa ATCC27853): 0.375
MICa: MIC of the antibiotic (P. aeruginosa ATCC27853): 128
MICac: MIC of the antibiotic in the combination (P. aeruginosa ATCC27853): 32
FICI (P. aeruginosa NR-31041): 1.063
MICa: MIC of the antibiotic (P. aeruginosa NR-31041): 128/128
MICac: MIC of the antibiotic in the combination (P. aeruginosa NR-31041): 128/128
FICI (P. aeruginosa NR-31040): 1.031
MICa: MIC of the antibiotic (P. aeruginosa NR-31040): 64/64
MICac: MIC of the antibiotic in the combination (P. aeruginosa NR-31040): 64/64
FICI (P. aeruginosa PA14): 1.031
MICa: MIC of the antibiotic (P. aeruginosa PA14): 128/128
MICac: MIC of the antibiotic in the combination (P. aeruginosa PA14): 128/128
FICI (P. aeruginosa AUMC-Pa-1): 0.531
FICI (P. aeruginosa AUMC-Pa-2): 1.063
FICI (P. aeruginosa HM-214): 1.031
